Laboratory results as given in the supplement of paper PMC10307832.

Key:
Experiment in all cases: relative viability (nuclei count vs DMSO), 5 days (fraction); higher = more cells survive
[1] = compound: CC(C)C[C@H](NC(=O)[C@H](Cc1ccccc1)NC(=O)c1cnccn1)B(O)O [Bortezomib] + Cc1nc(NC(=O)N2CCC[C@H]2C(N)=O)sc1-c1ccnc(C(C)(C)C(F)(F)F)c1 [Alpelisib] (partner 2 µM)
Procedure, shortened: (§1)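 Lung cancer cell lines in 1536-well plates got either a single drug or a fixed anchor-drug dose together with five library-drug doses (not always all listed) in √10 steps, by pin tool, on the day after seeding. Nuclei were counted after 5 days, and relative viability is the treated-to-vehicle ratio of nuclei counts. Values are medians of duplicate plates.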

[2] = compound: CC1=CC(=NN1)NC2=CC(=NC(=N2)/C=C/C3=CC=CC=C3)N4CCN(CC4)C + CS(=O)(=O)CCNCc1ccc(-c2ccc3ncnc(Nc4ccc(OCc5cccc(F)c5)c(Cl)c4)c3c2)o1 [Lapatinib] (partner 2 µM)
Procedure, shortened: as §1

[3] = compound: COC1=CC(c2cc3ccccc3[nH]2)=N/C1=C\c1[nH]c(C)cc1C [Obatoclax] + NC(=O)Nc1cc(-c2cccc(F)c2)sc1C(=O)N[C@H]1CCCNC1 [AZD7762] (partner 0.2 µM)
Procedure, shortened: as §1

[4] = compound: CC(C)C[C@H](NC(=O)[C@H](Cc1ccccc1)NC(=O)c1cnccn1)B(O)O [Bortezomib] + CCNC(=O)c1noc(-c2cc(C(C)C)c(O)cc2O)c1-c1ccc(CN2CCOCC2)cc1 [Luminespib] (partner 0.01 µM)
Procedure, shortened: as §1

| Cell Line | relative viability ([1]; first compound 0.0002 µM) | relative viability ([1]; first compound 0.000632 µM) | relative viability ([1]; first compound 0.002 µM) | relative viability ([1]; first compound 0.006325 µM) | relative viability ([1]; first compound 0.02 µM) | relative viability ([2]; first compound 0.253 µM) | relative viability ([2]; first compound 0.8 µM) | relative viability ([2]; first compound 2.53 µM) | relative viability ([2]; first compound 8 µM) | relative viability ([3]; first compound 0.01 µM) | relative viability ([3]; first compound 0.03162 µM) | relative viability ([3]; first compound 0.1 µM) | relative viability ([3]; first compound 0.3162 µM) | relative viability ([3]; first compound 1 µM) | relative viability ([4]; first compound 0.0002 µM) | relative viability ([4]; first compound 0.000632 µM) | relative viability ([4]; first compound 0.002 µM) | relative viability ([4]; first compound 0.006325 µM) | relative viability ([4]; first compound 0.02 µM) | relative viability ([2]; first compound 0.08 µM) |
| --- | --- | --- | --- | --- | --- | --- | --- | --- | --- | --- | --- | --- | --- | --- | --- | --- | --- | --- | --- | --- |
| IA-LM | 0.773 | 0.669 | 0.561 | 0.0626 | 0.0159 | 0.885 | 0.961 | 0.638 | 0.113 |  |  |  |  |  |  |  |  |  |  |  |
| LCLC-103H | 0.955 | 0.893 | 1.02 | 1.07 | 0.166 |  |  |  |  | 0.766 | 0.727 | 0.682 | 0.871 | 0.917 | 0.902 | 0.955 | 0.495 | 0.175 | 0.152 |  |
| NCI-H441 | 0.613 | 0.58 | 0.19 | 0.132 | 0.111 |  |  |  |  | 1.33 | 1.28 | 1.16 | 0.941 | 1.08 | 0.331 | 0.341 | 0.236 | 0.159 | 0.168 |  |
| NCI-H520 | 0.981 | 0.935 | 0.91 | 0.155 | 0.135 | 0.887 | 0.573 | 0.182 | 0.0952 |  |  |  |  |  | 0.223 | 0.234 | 0.237 | 0.211 | 0.217 | 0.831 |
| NCI-H522 |  |  |  |  |  |  |  |  |  | 0.823 | 0.664 | 0.915 | 0.92 | 0.883 | 0.983 | 0.97 | 0.959 | 0.745 | 0.367 |  |
| NCI-H661 | 0.582 | 0.501 | 0.625 | 0.602 | 0.216 | 0.53 | 0.57 | 0.419 | 0.146 |  |  |  |  |  | 0.928 | 0.858 | 0.921 | 0.4 | 0.151 | 0.489 |
| NCI-H1299 | 1.02 | 1.07 | 1.08 | 0.89 | 0.304 | 0.977 | 0.982 | 0.685 | 0.257 |  |  |  |  |  |  |  |  |  |  | 0.955 |
| NCI-H1563 | 0.882 | 0.848 | 0.844 | 0.505 | 0.489 | 0.784 | 0.91 | 0.667 | 0.403 |  |  |  |  |  | 0.47 | 0.527 | 0.562 | 0.449 | 0.331 | 0.905 |
| NCI-H1623 |  |  |  |  |  |  |  |  |  |  |  |  |  |  | 0.498 | 0.496 | 0.551 | 0.364 | 0.277 |  |
| NCI-H1648 |  |  |  |  |  |  |  |  |  | 0.701 | 0.754 | 1 | 0.77 | 0.886 |  |  |  |  |  |  |
| NCI-H1650 |  |  |  |  |  | 0.739 | 0.946 | 0.109 | 0.0756 |  |  |  |  |  | 0.186 | 0.185 | 0.177 | 0.203 | 0.217 | 0.775 |
| NCI-H1703 | 0.32 | 0.256 | 0.131 | 0.134 | 0.0835 | 0.975 | 0.373 | 0.177 | 0.167 | 0.135 |  |  | 0.138 | 0.126 |  |  |  |  |  | 1.11 |
